Results reported in PMC6273209, “Evaluation of the Enantiomer Specific Biokinetics and Radiation Doses of [^18F]Fluspidine—A New Tracer in Clinical Translation for Imaging of σ1 Receptors” (Molecules, 2016).
Several values for one entry are separate records, joined by “and”; a condition that tells them apart may be missing. Identical values can stand only once.

Test: Human dosimetry estimation from small animal PET/MRI (imaging method)
Assay type: in vivo, CD-1 mice
Settings: for OD Adrenals / OD Brain / OD Breasts / OD Gallbladder Wall / OD Heart Wall / OD Kidneys / OD LLI Wall / OD Liver / OD Lungs / OD Muscle / OD Osteogenic Cells / OD Ovaries / OD Pancreas / OD Red Marrow / OD Skin / OD Small Intestine / OD Spleen / OD Stomach Wall / OD Testes / OD Thymus / OD Thyroid / OD Total Body / OD ULI Wall / OD Urinary Bladder Wall / OD Uterus / ED Contr. Adrenals / ED Contr. Brain / ED Contr. Breasts / ED Contr. Gallbladder Wall / ED Contr. Heart Wall / ED Contr. Kidneys / ED Contr. LLI Wall / ED Contr. Liver / ED Contr. Lungs / ED Contr. Muscle / ED Contr. Osteogenic Cells / ED Contr. Ovaries / ED Contr. Pancreas / ED Contr. Red Marrow / ED Contr. Skin / ED Contr. Small Intestine / ED Contr. Spleen / ED Contr. Stomach Wall / ED Contr. Testes / ED Contr. Thymus / ED Contr. Thyroid / ED Contr. Total Body / ED Contr. ULI Wall / ED Contr. Urinary Bladder Wall / ED Contr. Uterus: mouse PET/MRI; for OD Adrenals / OD Brain / OD Breasts / OD Gallbladder Wall / OD Heart Wall / OD Kidneys / OD LLI Wall / OD Liver / OD Lungs / OD Muscle / OD Osteogenic Cells / OD Ovaries / OD Pancreas / OD Red Marrow / OD Skin / OD Small Intestine / OD Spleen / OD Stomach Wall / OD Testes / OD Thymus / OD Thyroid / OD Total Body / OD ULI Wall / OD Urinary Bladder Wall / OD Uterus: scaled to human adult male model; for ED Contr. Adrenals / ED Contr. Brain / ED Contr. Breasts / ED Contr. Gallbladder Wall / ED Contr. Heart Wall / ED Contr. Kidneys / ED Contr. LLI Wall / ED Contr. Liver / ED Contr. Lungs / ED Contr. Muscle / ED Contr. Osteogenic Cells / ED Contr. Ovaries / ED Contr. Pancreas / ED Contr. Red Marrow / ED Contr. Skin / ED Contr. Small Intestine / ED Contr. Spleen / ED Contr. Stomach Wall / ED Contr. Testes / ED Contr. Thymus / ED Contr. Thyroid / ED Contr. Total Body / ED Contr. ULI Wall / ED Contr. Urinary Bladder Wall / ED Contr. Uterus / ED: ICRP 103 weighting; for ED ICRP 60 / ED: mouse, imaging (PET/MRI); for ED ICRP 60: ICRP 60 weighting
Protocol: The animals were initially anesthetized with 4% of isoflurane and were positioned prone in a small-animal PET/MRI system (nanoScan® PET/MRI, MEDISO, Budapest, Hungary) equipped with respiratory monitoring, heated mouse bed (37 °C), and inhalation anesthesia (1.8% isoflurane in a 60% oxygen/40% air gas mixture at 250 mL/min airflow; Anaesthesia Unit U-410, agntho’s, Lidingö, Sweden; Gas blender 100 series, MCQ Instruments, Rome, Italy). Prior to the PET scan, a scout image MR sequence was done to outline the animal dimensions. Female CD-1 mice (age: 12 weeks, weight: 30.9 ± 1.3 g) were injected via the tail vein with (S)-(−)-[^18F]fluspidine (13.2 ± 3.0 MBq; n = 3) or (R)-(+)-[^18F]fluspidine (12.6 ± 1.4 MBq; n = 3) in a volume of 200 μL saline. The injected dose was calculated by the difference of the radioactivity in the syringe before and after the injection. A dynamic whole body animal PET scan of 105 min length (Figure 1) was started simultaneously. This scanning time was chosen to represent the protocol of the human study (after time extrapolation according to Equation (2)) based on a priori biokinetic information from the ex vivo investigation. Following the PET scan, a 20 min T1-weighted whole body MR scan (gradient echo sequence, TR = 20 ms; TE = 3.2 ms) was performed for anatomical orientation after co-registration and attenuation correction at the reconstruction step.
The PET images were iteratively (ordered-subsets expectation maximization, OSEM) reconstructed (preclinical: 4 iterations, 6 subsets; clinical: 4 iterations, 8 subsets) and corrected for decay, randoms, scatter, and dead time, μ-maps for attenuation correction of PET-emission data were derived from the CT or MR [49] structural data, respectively. The PET data were re-binned into 10 time frames (preclinical: 4 × 5 min, 1 × 10 min, and 5 × 15 min; clinical: 4 × 12 min, 3 × 16 min, 1 × 32 min, 1 × 40 min, and 1 × 48 min), and the reconstructed PET/MRI and PET/CT images were co-registered manually with ROVER (ABX, advanced chemical compounds, Radeberg, Germany, version 2.1.17). Quantitative evaluation was performed by drawing volumes of interest (VOI) for brain, gallbladder, large intestine, small intestine, stomach, heart, kidneys, liver, lungs, pancreas, red marrow (backbone, pelvis, sternum), spleen, thyroid, testes, and urinary bladder (Figure S4). The PET derived biokinetic data is expressed as percentage of injected activity (dose) per cubic centimeter (%ID/cm^3).
For human dosimetry estimation from animal biodistribution and PET/MR imaging, animal organ masses and time scale was extrapolated to human magnitudes. At first, the organ-specific animal %ID data were extrapolated to the human scale with the equation (1) %ID/organhuman=%ID/gmouse · morganhuman · mmouse/mhuman with the fraction of the injected activity in the corresponding human organ = %ID/organhuman , the fraction of injected activity per gram animal organ tissue = %ID/gmouse and morganhuman the mass of the corresponding human organ. At second, a time scale extrapolation is needed due to differences in the metabolic rate using the equation (2) thuman=tmouse{mhuman/mmouse}^0.25 including the human time scale = thuman , the animal time scale = tmouse and the ratio of animal and human body weights = mmouse/mhuman .
The human dosimetry estimation was performed with the data extrapolated as well as the genuine human data using OLINDA/EXM software. The time-activity curves were estimated by exponential fitting and calculating the time integral, which equals the number of disintegrations (NODs) per organ during the observation period normalized to 1 Becquerel administered activity dose. […] Therefore, activity data of the urinary bladder was derived from the image for each time point. In contrast, for humans the activity concentration data of the urinary bladder was obtained in a more direct approach. […]

Compound: FCC[C@@H]1OC2(CCN(Cc3ccccc3)CC2)c2ccccc21 [(S)-(−)-[^18F]fluspidine]
- OD Adrenals: 10.50 μSv/MBq
- OD Brain: 10.10 μSv/MBq
- OD Breasts: 5.93 μSv/MBq
- OD Gallbladder Wall: 25.60 μSv/MBq
- OD Heart Wall: 9.85 μSv/MBq
- OD Kidneys: 37.60 μSv/MBq
- OD LLI Wall: 14.00 μSv/MBq
- OD Liver: 25.00 μSv/MBq
- OD Lungs: 10.40 μSv/MBq
- OD Muscle: 7.57 μSv/MBq
- OD Osteogenic Cells: 12.70 μSv/MBq
- OD Ovaries: 11.50 μSv/MBq
- OD Pancreas: 10.90 μSv/MBq
- OD Red Marrow: 10.80 μSv/MBq
- OD Skin: 5.61 μSv/MBq
- OD Small Intestine: 23.10 μSv/MBq
- OD Spleen: 26.10 μSv/MBq
- OD Stomach Wall: 10.50 μSv/MBq
- OD Testes: 7.46 μSv/MBq
- OD Thymus: 7.19 μSv/MBq
- OD Thyroid: 7.61 μSv/MBq
- OD Total Body: 8.68 μSv/MBq
- OD ULI Wall: 20.50 μSv/MBq
- OD Urinary Bladder Wall: 58.00 μSv/MBq
- OD Uterus: 12.80 μSv/MBq
- ED Contr. Adrenals (scaled to human): 0.09 μSv/MBq
- ED Contr. Brain (scaled to human): 0.10 μSv/MBq
- ED Contr. Breasts (scaled to human): 0.71 μSv/MBq
- ED Contr. Gallbladder Wall (scaled to human): 0.22 μSv/MBq
- ED Contr. Heart Wall (scaled to human): 0.08 μSv/MBq
- ED Contr. Kidneys (scaled to human): 0.32 μSv/MBq
- ED Contr. LLI Wall (scaled to human): 0.84 μSv/MBq
- ED Contr. Liver (scaled to human): 1.00 μSv/MBq
- ED Contr. Lungs (scaled to human): 1.25 μSv/MBq
- ED Contr. Muscle (scaled to human): 0.07 μSv/MBq
- ED Contr. Osteogenic Cells (scaled to human): 0.13 μSv/MBq
- ED Contr. Ovaries (scaled to human): 0.92 μSv/MBq
- ED Contr. Pancreas (scaled to human): 0.09 μSv/MBq
- ED Contr. Red Marrow (scaled to human): 1.30 μSv/MBq
- ED Contr. Skin (scaled to human): 0.06 μSv/MBq
- ED Contr. Small Intestine (scaled to human): 0.20 μSv/MBq
- ED Contr. Spleen (scaled to human): 0.22 μSv/MBq
- ED Contr. Stomach Wall (scaled to human): 1.26 μSv/MBq
- ED Contr. Testes (scaled to human): 0.00 μSv/MBq
- ED Contr. Thymus (scaled to human): 0.06 μSv/MBq
- ED Contr. Thyroid (scaled to human): 0.30 μSv/MBq
- ED Contr. Total Body (scaled to human): 0.00 μSv/MBq
- ED Contr. ULI Wall (scaled to human): 1.23 μSv/MBq
- ED Contr. Urinary Bladder Wall (scaled to human): 2.32 μSv/MBq
- ED Contr. Uterus (scaled to human): 0.11 μSv/MBq
- ED ICRP 60 (scaled to human): 14.8 μSv/MBq
- ED (scaled to human): 12.9 ± 0.4 μSv/MBq and 12.9 μSv/MBq
- ED (scaled to human, listed as (S)-(−)-[^18F]Fluspidine): 12.9 μSv/MBq

Compound: [18F]CC[C@H]1OC2(CCN(Cc3ccccc3)CC2)c2ccccc21 [(R)-(+)-[^18F]fluspidine]
- OD values of (R)-(+)-enantiomer relative to (S)-(−)-enantiomer (mice, scaled to human): up to 1.3 fold
- OD Adrenals: 11.00 μSv/MBq
- OD Brain: 13.20 μSv/MBq
- OD Breasts: 6.19 μSv/MBq
- OD Gallbladder Wall: 30.10 μSv/MBq
- OD Heart Wall: 10.50 μSv/MBq
- OD Kidneys: 26.90 μSv/MBq
- OD LLI Wall: 13.80 μSv/MBq
- OD Liver: 26.10 μSv/MBq
- OD Lungs: 10.80 μSv/MBq
- OD Muscle: 7.86 μSv/MBq
- OD Osteogenic Cells: 14.00 μSv/MBq
- OD Ovaries: 11.90 μSv/MBq
- OD Pancreas: 24.80 μSv/MBq
- OD Red Marrow: 12.80 μSv/MBq
- OD Skin: 5.82 μSv/MBq
- OD Small Intestine: 22.60 μSv/MBq
- OD Spleen: 31.80 μSv/MBq
- OD Stomach Wall: 12.70 μSv/MBq
- OD Testes: 7.63 μSv/MBq
- OD Thymus: 7.52 μSv/MBq
- OD Thyroid: 10.10 μSv/MBq
- OD Total Body: 9.13 μSv/MBq
- OD ULI Wall: 25.60 μSv/MBq
- OD Urinary Bladder Wall: 55.70 μSv/MBq
- OD Uterus: 13.00 μSv/MBq
- ED Contr. Adrenals (scaled to human): 0.09 μSv/MBq
- ED Contr. Brain (scaled to human): 0.13 μSv/MBq
- ED Contr. Breasts (scaled to human): 0.74 μSv/MBq
- ED Contr. Gallbladder Wall (scaled to human): 0.26 μSv/MBq
- ED Contr. Heart Wall (scaled to human): 0.09 μSv/MBq
- ED Contr. Kidneys (scaled to human): 0.23 μSv/MBq
- ED Contr. LLI Wall (scaled to human): 0.83 μSv/MBq
- ED Contr. Liver (scaled to human): 1.04 μSv/MBq
- ED Contr. Lungs (scaled to human): 1.30 μSv/MBq
- ED Contr. Muscle (scaled to human): 0.07 μSv/MBq
- ED Contr. Osteogenic Cells (scaled to human): 0.14 μSv/MBq
- ED Contr. Ovaries (scaled to human): 0.95 μSv/MBq
- ED Contr. Pancreas (scaled to human): 0.21 μSv/MBq
- ED Contr. Red Marrow (scaled to human): 1.53 μSv/MBq
- ED Contr. Skin (scaled to human): 0.06 μSv/MBq
- ED Contr. Small Intestine (scaled to human): 0.20 μSv/MBq
- ED Contr. Spleen (scaled to human): 0.27 μSv/MBq
- ED Contr. Stomach Wall (scaled to human): 1.52 μSv/MBq
- ED Contr. Testes (scaled to human): 0.00 μSv/MBq
- ED Contr. Thymus (scaled to human): 0.06 μSv/MBq
- ED Contr. Thyroid (scaled to human): 0.41 μSv/MBq
- ED Contr. Total Body (scaled to human): 0.00 μSv/MBq
- ED Contr. ULI Wall (scaled to human): 1.54 μSv/MBq
- ED Contr. Urinary Bladder Wall (scaled to human): 2.23 μSv/MBq
- ED Contr. Uterus (scaled to human): 0.11 μSv/MBq
- ED ICRP 60 (scaled to human): 15.2 μSv/MBq
- ED (scaled to human): 14.0 μSv/MBq
- ED (scaled to human, listed as (R)-(+)-[^18F]Fluspidine): 14.0 μSv/MBq
